# Results as given in patent US20080096894A1, “Anti-Bacterial Compounds” (ASTON UNIVERSITY, priority 2005, published 2008).
# Like-named read-outs stand apart in the source and are kept apart here.
# Tests used:
# [1] = test system: E. cloacae; assay: MIC, agar dilution, multipoint inoculator; assay type: cell-based, Enterobacter cloacae; conditions: Enterobacter cloacae, NCTC11582, 18 h; E. cloacae NCTC 11582; upper value of MIC reading; read-out: MIC
# Experimental: (§1) This activity was measured using a multipoint inoculator method as follows. The MIC for each compound was measured using an agar dilution method (Onda, H., et al., Int. J. Antimicrob. Agents. 18, 263 (2001)) (Mueller Hinton agar) by means of a multipoint inoculator delivering 10^4 colony forming units per spot.
# [2] = test system: S. marcesens; assay: MIC, agar dilution, multipoint inoculator; assay type: cell-based, Serratia marcescens; conditions: Serratia marcescens, 18 h; S. marcesens 4444; upper value of MIC reading; read-out: MIC
# Experimental: as §1
# [3] = test system: S. aureus; assay: MIC, agar dilution, multipoint inoculator; assay type: cell-based, Staphylococcus aureus; conditions: Staphylococcus aureus, upper value of MIC reading, read-out: MIC
# Summary of the method: (§2)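 Minimum inhibitory concentrations come from an agar dilution method using Mueller Hinton medium. Inocula of 10^4 colony forming units per spot were applied with a multipoint inoculator.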
# [4] = test system: P. auriginosa; assay: MIC, agar dilution, multipoint inoculator; assay type: cell-based, Pseudomonas aeruginosa; conditions: Pseudomonas aeruginosa, NCTC6749, 18 h; P. auriginosa NCTC 6749; upper value of MIC reading; read-out: MIC
# Experimental: as §1
# [5] = test system: S. epidemisis; assay: MIC, agar dilution, multipoint inoculator; assay type: cell-based, Staphylococcus epidermidis; conditions: Staphylococcus epidermidis, upper value of MIC reading, read-out: MIC
# Summary of the method: as §2
# [6] = test system: MRSA; assay: MIC, agar dilution, multipoint inoculator; assay type: cell-based, methicillin-resistant Staphylococcus aureus; conditions: Staphylococcus aureus, 18 h, upper value of MIC reading, read-out: MIC
# Summary of the method: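 Agar dilution MIC on Mueller Hinton agar, multipoint inoculator delivering 10^4 colony forming units per spot. MRSA values are ranges across ten clinical MRSA strains; S. aureus NCTC 6571 as reference strain.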
# [7] = test system: K. pneumoniae; assay: MIC, agar dilution, multipoint inoculator; assay type: cell-based, Klebsiella pneumoniae; conditions: Klebsiella pneumoniae, 18 h; K. pneumoniae 327; upper value of MIC reading; read-out: MIC
# Experimental: as §1
# [8] = test system: B. bronchiseptica; assay: MIC, agar dilution, multipoint inoculator; assay type: cell-based; conditions: Bordetella bronchiseptica, NCTC8344, 18 h; B. bronchiseptica NCTC 8344; upper value of MIC reading; read-out: MIC
# Summary of the method: as §2
# [9] = test system: E. faecalis; assay: MIC, agar dilution, multipoint inoculator; assay type: cell-based; conditions: Enterococcus faecalis, upper value of MIC reading, read-out: MIC
# Summary of the method: as §2
# [10] = test system: S. maltophilia; assay: MIC, agar dilution, multipoint inoculator; assay type: cell-based; conditions: Stenotrophomonas maltophilia, NCTC10257, 18 h; S. maltophilia NCTC 10257; upper value of MIC reading; read-out: MIC
# Summary of the method: as §2
# [11] = test system: S. haemolyticus; assay: MIC, agar dilution, multipoint inoculator; assay type: cell-based; conditions: Staphylococcus haemolyticus, 18 h; S. haemolyticus Isolate 1; upper value of MIC reading; read-out: MIC
# Summary of the method: as §2
# [12] = test system: S. aboni; assay: MIC, agar dilution, multipoint inoculator; assay type: cell-based; conditions: S. aboni NCTC 6017; upper value of MIC reading
# Summary of the method: as §2
# [13] = test system: E. faecium; assay: MIC, agar dilution, multipoint inoculator; assay type: cell-based, Enterococcus faecium; conditions: Enterococcus faecium, upper value of MIC reading, read-out: MIC
# Summary of the method: as §2
# [14] = test system: E. coli; assay: MIC, agar dilution, multipoint inoculator; assay type: cell-based, Escherichia coli; conditions: Escherichia coli, 18 h, upper value of MIC reading
# Experimental: as §1
# [15] = test system: Enterococcus faecium; assay: MIC, doubling dilution in 96-well microtitre plate; assay type: cell-based; conditions: Enterococcus faecium ATCC 10541
# Experimental: (§3) The compound was tested as follows. […] The wells were inoculated with organism ([…] of medium containing 10^6 cfu/mL) and the plates were incubated at 37° C. overnight. Where growth of organism occurred this was observed as a small button when viewed from underneath the plate. The MIC was determined as the lowest concentration inhibiting growth.
# [16] = test system: Bacillus cereus; assay: MIC, doubling dilution in 96-well microtitre plate; assay type: cell-based
# Experimental: as §3
# [17] = test system: Bacillus megarerium; assay: MIC, doubling dilution in 96-well microtitre plate; assay type: cell-based
# Experimental: as §3
# [18] = test system: Micrococcus roseus; assay: MIC, doubling dilution in 96-well microtitre plate; assay type: cell-based
# Experimental: as §3
# [19] = test system: Bacillus subtilis; assay: MIC, doubling dilution in 96-well microtitre plate; assay type: cell-based
# Experimental: as §3
# [20] = NCTC6571, 18 h, S. aureus NCTC 6571
# [21] = NCTC10788, 18 h, S. aureus NCTC 10788
# [22] = NCTC11047, 18 h, S. epidemisis NCTC 11047
# [23] = NCTC5957, 18 h, E. faecalis NCTC 5957
# [24] = NCTC7171, 18 h, E. faecium NCTC 7171
Structure (SMILES),MIC [1],MIC [2],"MIC ([3]; 18 h, S. aureus Cowan 1)","MIC [3, 20]","MIC [3, 21]",MIC [4],"MIC ([5]; 18 h, S. epidemisis Isolate 1)","MIC [5, 22]",MIC ([6]; MRSA Isolate 1),MIC ([6]; MRSA Isolate 2),MIC ([6]; MRSA Isolate 3),MIC ([6]; MRSA Isolate 4),MIC ([6]; MRSA Isolate 5),MIC ([6]; MRSA Isolate 6),MIC ([6]; MRSA Isolate 7),MIC ([6]; MRSA Isolate 8),MIC ([6]; MRSA Isolate 9),MIC ([6]; MRSA Isolate 10),MIC [7],MIC [8],further results
"CC1(C)S[C@@H]2[C@H](NC(=O)[C@H](N)c3ccccc3)C(=O)N2[C@H]1C(=O)O [Amp., Ampicillin, reference compound]",16 µg/mL,8 µg/mL,0.05 µg/mL,0.05 µg/mL,0.05 µg/mL,16 µg/mL,8 µg/mL,4 µg/mL,0.12 µg/mL,8 µg/mL,8 µg/mL,8 µg/mL,8 µg/mL,8 µg/mL,8 µg/mL,8 µg/mL,8 µg/mL,8 µg/mL,> 16 µg/mL,1 µg/mL,"MIC ([9]; 18 h, E. faecalis EBH1): 0.05 µg/mL; MIC ([9]; 18 h, E. faecalis Isolate 1): 0.05 µg/mL; MIC ([9]; 18 h, E. faecalis Isolate 2): 0.05 µg/mL; MIC ([9]; 18 h, E. faecalis Isolate 3): 0.05 µg/mL; MIC ([9]; 18 h, E. faecalis Isolate 4): 2 µg/mL; MIC ([9]; 18 h, E. faecalis Isolate 5): 2 µg/mL; MIC [9, 23]: 2 µg/mL; MIC [10]: 16 µg/mL; MIC [11]: 1 µg/mL; MIC [12]: 0.05 µg/mL; MIC ([13]; 18 h, E. faecium ACTCC 10541): 2 µg/mL; MIC [13, 24]: 1 µg/mL; MIC ([14]; E. coli W3110R+): > 16 µg/mL; MIC ([14]; E. coli W3110R−): 1 µg/mL"
CC(=O)Nc1ccc(C=NN=C(N)c2cc[n+]([O-])cc2)cc1 [Compound 4PYOfa],–,–,–,–,–,–,–,–,–,–,–,–,–,–,–,–,–,–,–,–,MIC [15]: 16 to 32 µg/mL; MIC [16]: 8 to 16 µg/mL; MIC [17]: 16 to 32 µg/mL; MIC [18]: 16 to 32 µg/mL; MIC [19]: 4 to 8 µg/mL
"Cc1onc(-c2c(F)cccc2Cl)c1C(=O)N[C@@H]1C(=O)N2[C@@H]1SC(C)(C)[C@@H]2C(=O)O [Fluclox., Flucloxacillin, reference compound]",> 16 µg/mL,> 16 µg/mL,0.05 µg/mL,0.05 µg/mL,0.05 µg/mL,8 µg/mL,> 16 µg/mL,0.05 µg/mL,0.05 µg/mL,8 µg/mL,8 µg/mL,16 µg/mL,0.05 µg/mL,0.25 µg/mL,0.25 µg/mL,8 µg/mL,8 µg/mL,0.25 µg/mL,> 16 µg/mL,> 16 µg/mL,"MIC ([9]; 18 h, E. faecalis EBH1): 0.5 µg/mL; MIC ([9]; 18 h, E. faecalis Isolate 1): 1 µg/mL; MIC ([9]; 18 h, E. faecalis Isolate 2): 0.5 µg/mL; MIC ([9]; 18 h, E. faecalis Isolate 4): 1 µg/mL; MIC ([9]; 18 h, E. faecalis Isolate 5): 1 µg/mL; MIC [9, 23]: 1 µg/mL; MIC [10]: 16 µg/mL; MIC [11]: 0.5 µg/mL; MIC [12]: 0.05 µg/mL; MIC ([13]; 18 h, E. faecium ACTCC 10541): 1 µg/mL; MIC [13, 24]: 1 µg/mL; MIC ([14]; E. coli W3110R+): > 16 µg/mL; MIC ([14]; E. coli W3110R−): > 16 µg/mL"
